Laboratory results published in patent US4894389A, “Novel aminoalkyl-substituted heterocyclic sulfur compounds” (Merrell Dow Pharmaceuticals Inc., priority 1987, dated 1990).

Key:
[1] = tested on: spontaneously hypertensive rats; assay: Antihypertensive activity in vivo: continuous recording of arterial blood pressure in conscious spontaneously hypertensive rats; settings: ip
Experimental: For instance, test compounds are administered intraperitoneally (ip) to unanesthetized, spontaneously hypertensive rats and the arterial blood pressure is monitored continuously.

[2] = molecular target: T1, dopamine-β-hydroxylase (DBH) (Bos taurus, UniProt P15101); assay: DBH inhibition kinetics: conversion of tyramine to octopamine, HPLC with fluorometric quantitation; type: biochemical; settings: read-out: inhibition constant (ki)
T1 sequence (P15101 1-610): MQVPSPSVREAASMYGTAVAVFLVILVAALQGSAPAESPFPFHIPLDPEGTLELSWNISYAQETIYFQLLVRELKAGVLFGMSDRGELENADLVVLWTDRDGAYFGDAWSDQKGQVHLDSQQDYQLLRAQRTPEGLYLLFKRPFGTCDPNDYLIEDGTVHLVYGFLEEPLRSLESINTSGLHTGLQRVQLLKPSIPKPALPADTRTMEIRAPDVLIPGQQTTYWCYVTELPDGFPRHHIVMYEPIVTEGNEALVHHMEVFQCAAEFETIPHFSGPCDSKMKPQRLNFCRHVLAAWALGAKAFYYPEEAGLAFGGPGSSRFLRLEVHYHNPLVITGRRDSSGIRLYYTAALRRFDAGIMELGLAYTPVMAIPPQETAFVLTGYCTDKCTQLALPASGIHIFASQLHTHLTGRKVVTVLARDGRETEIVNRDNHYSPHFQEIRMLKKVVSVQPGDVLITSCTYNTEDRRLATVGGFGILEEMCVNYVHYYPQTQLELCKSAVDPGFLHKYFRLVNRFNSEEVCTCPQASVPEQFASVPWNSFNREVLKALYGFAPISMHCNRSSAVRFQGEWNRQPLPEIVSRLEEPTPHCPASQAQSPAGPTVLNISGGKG
From the text: The DBH inhibitory properties of the compounds of this invention can also readily be determined […] by standard and well known procedures for assaying the conversion of tyramine to octopamine in the presence of DBH, such as the procedure set forth by Feilchenfeld, N. B., Richter, H. W. and Waddell, W. H. in "Time-Resolved Assay of Dopamine Beta Hydroxylase Activity Utilizing High-Pressure Liquid Chromatography", Analyt. Biochem., 122, 124-128 (1982). Determination of the kinetics of DBH inhibition is exemplified by a procedure where the enzyme-assisted conversion of tyramine to octopamine is determined by incubating varying concentrations of test compound with constant concentrations of substrate, enzyme (DBH), molecular oxygen, an electron donor such as ascorbate and the necessary cofactors for the enzyme at optimal temperature and pH. After incubation, the product is separated out by high-performance liquid chromatography and quantitated fluorometrically, from which an inhibition constant (ki) can readily be calculated.

[3] = molecular target: T1, dopamine-β-hydroxylase (DBH); assay: Time-dependent DBH inhibitory activity in vitro (tyramine substrate, oxygen uptake by polarographic electrode); type: biochemical
Experimental: Since DBH is a major enzyme in the synthetic pathway of norepinephrine (NE), the presence of a DBH inhibitor would act to decrease the amount of NE produced, and thereby have an antihypertensive effect. The DBH inhibitory properties of the compounds of this invention can readily be determined by standard and well-known procedures. […] The test compound is added at the desired concentration, and the system is incubated. Aliquots are taken at different time intervals and DBH activity is measured using tyramine as the substrate. The reaction is followed by measuring oxygen uptake using a polarographic electrode and an oxygen monitor by the method of S. May, et al., J. Biol. Chem., 256, 2258 (1981).

NC/C=C1/CCCS1 [Example 6]
in vivo antihypertensive activity [1]: active as an in vivo antihypertensive agent

1,3-Dithiolane-2-ethanamine [Example 2]
Ki [2]: 11 µM

NCC=C1SCCS1 [compound 1]
activity in the time-dependent DBH assay [3]: most active compound of the compounds tested
